Reference: the NIST ThermoML archive (doi:10.1021/je0503251)

Conditions: Liquid, Closed cell (Static) method

FC(F)CC(F)(F)F [1,1,1,3,3-pentafluoropropane]
Conditions | vapor or sublimation pressure [kPa]
253.12 K | 19.34
258.16 K | 25.37
263.13 K | 32.79
268.12 K | 41.88
273.12 K | 52.91
278.12 K | 66.17
283.15 K | 82.07
285.14 K | 89.11
288.12 K | 100.56
293.09 K | 122.2
295.08 K | 131.93
298.06 K | 147.46
303.06 K | 177.01
305.05 K | 190.2
308.05 K | 210.95
310.09 K | 225.91
313.1 K | 249.94
315.08 K | 266.8
318.12 K | 294.26
320.17 K | 312.44
323.16 K | 343.03
325.16 K | 364.63
328.16 K | 398.98
330.16 K | 423.22
333.16 K | 461.65
338.16 K | 531.78
343.16 K | 609.29
345.16 K | 642.58
348.16 K | 695.02
353.16 K | 789.45
358.16 K | 893.28
363.16 K | 1007
368.13 K | 1130.3
373.13 K | 1265.7
378.16 K | 1413.6
383.15 K | 1573.3
388.14 K | 1745.4
393.14 K | 1932.2
398.12 K | 2133.2
403.07 K | 2348.2

COCOC [dimethoxymethane]
Conditions | vapor or sublimation pressure [kPa]
283.13 K | 27.73
285.13 K | 30.39
288.11 K | 34.73
293.07 K | 43.08
295.07 K | 46.83
298.07 K | 52.94
300.07 K | 57.14
303.05 K | 64.26
305.05 K | 69.42
308.05 K | 77.74
310.07 K | 83.8
313.16 K | 93.85
318.13 K | 111.95
323.17 K | 132.98
325.18 K | 142.06
328.17 K | 156.44
330.17 K | 166.67
333.17 K | 182.96
335.17 K | 194.47
338.16 K | 212.79
340.16 K | 225.73
343.16 K | 246.24
345.16 K | 260.68
348.16 K | 283.65
353.16 K | 325.16
358.16 K | 371.53
363.16 K | 421.82
368.16 K | 477.61
373.15 K | 538.51
378.16 K | 605.33
383.13 K | 677.68
388.15 K | 757.05
393.16 K | 842.82
398.15 K | 935.48
